Source: patent US7485759B2, “Minimization of ligand degradation products, or reversion of same to useful phosphine ligands” (Dow Technology Investments LLC, priority 2003, dated 2009)

Experiments:
[1] = Batch hydroformylation of soy oil methyl esters; average rate of phosphonium ligand degradation product formation by 31P NMR (Comparative Experiment 5, Example 5); type: physicochemical; details: 30 psig, reaction time 4 days
Experimental: The hydroformylation of soy oil methyl esters was conducted at 100° C. for comparative purposes to illustrate the effect of temperature on the formation of ligand degradation products. Under a nitrogen atmosphere, a hydroformylation catalyst solution was prepared containing Ligand A (2.208 g, 5.866 mmol, initial ligand concentration in the reactor: 0.10M), Rh(CO)2acac (0.0366 g, 0.142 mmol), and 1-methyl-2-pyrrolidone (NMP, 16.05 g). Ligand A, the mono-sulfonated sodium salt of bis(dicyclohexyl)phenylphosphine, has the following structure.
Also prepared under nitrogen was a neat solution of soybean oil-derived methyl esters (33.95 g, 115.08 mmol), prepared by the transesterification of soybean oil with methanol using standard methods known in the art. Soybean oil contains polyunsaturated esters. Under nitrogen, the catalyst solution was added into a 100 mL stainless steel reactor, and the soy methyl esters were added into a substrate delivery cylinder attached to the reactor. […] The average rate of phosphonium ligand degradation product formation was determined using the NMR data.
The hydroformylation of soy oil methyl esters was conducted at 85° C. as an example of the invention to illustrate the effect of temperature on the formation of ligand degradation products. […] The average rate of phosphonium ligand degradation product formation was determined using the NMR data.

[2] = Continuous hydroformylation mini-plant with soy methyl esters; formation rate of phosphonium degradation products (Examples 6-8, Comparative Experiment 6); type: physicochemical
Experimental: The formation rate of phosphonium degradation products was measured in a continuous hydroformylation mini-plant, which consisted of a reaction system comprised of three reactors in series and a product/catalyst separation system with catalyst recycle. The reactors were charged with a catalyst solution containing Ligand A (2.5 wt %) shown in Example 5 hereinabove, Rh(CO)2acac (500 ppm Rh), and 20 wt % 1-methyl-2-pyrrolidone (NMP). A mixture of soy methyl esters was fed continuously to the first reactor. The reactors were operated at 600 psig (4,137 kPa) pressure by continuously feeding a gaseous mixture of carbon monoxide and hydrogen (CO:H2=1:1 vol/vol). The reaction was conducted for 153 hours continuously at 85° C. The formation rate of phosphonium degradation products was measured to be 0.02 g/liter/day during this period. The pressure of carbon monoxide and hydrogen (CO:H2=1:1 vol/vol) was then reduced to 400 psig (2,758 kPa) while keeping the temperature and other conditions unchanged. The reaction was conducted for 59 hours, and the formation rate of phosphonium degradation products was measured to be 0.03 g/liter/day during this period. The results illustrate a low rate of phosphonium formation at a pressure greater than 300 psig, and further that phosphonium formation decreases with increasing pressure.
The formation rate of phosphonium degradation products was measured in a continuous hydroformylation mini-plant similar to the system described in Example 6. The reaction system was charged with a catalyst solution containing Ligand A (2.5 wt %) as shown in Example 5 hereinabove, Rh(CO)2acac (500 ppm Rh), and 20 wt % 1-methyl-2-pyrrolidone (NMP). Soy methyl esters were fed continuously to the reaction system. The reactors were operated at 400 psig (2,758 kPa) pressure by continuously feeding a gaseous mixture of carbon monoxide and hydrogen (CO:H2=1:1 vol/vol). The reaction was conducted continuously for 59 hours with all reactors at 85° C. The formation rate of phosphonium degradation products was measured to be 0.03 g/liter/day during this period.
For comparative purposes, Example 7 was repeated with the exception that the temperature of the last reactor was increased to 100° C. while keeping the temperature of all other reactors at 85° C. All other conditions remained unchanged. The reaction was conducted for 140 hours and the formation rate of phosphonium degradation products was measured to be 0.07 g/liter/day during this period.
The formation rate of phosphonium degradation products was measured in a continuous hydroformylation mini-plant similar to the one described in Example 6. The reaction system was charged with a catalyst solution containing Ligand A (2 wt %), Rh(CO)2acac (300 ppm Rh), and 30 wt % 1-methyl-2-pyrrolidone (NMP). Soy methyl esters, were fed continuously to the reaction system. The reactors were operated at 300 psig (2,068 kPa) pressure by continuously feeding a gaseous mixture of carbon monoxide and hydrogen (CO:H2=1:1 vol/vol). The reaction was conducted continuously for 150 hours at 95° C. The formation rate of phosphonium degradation products were measured to be 0.05 g/liter/day during this period. The pressure of the reaction system was increased to 600 psig (4136 kPa), and the temperature of the reaction system was decreased to 85° C., while keeping all other conditions unchanged. The reaction was conducted for 350 hours and the formation rate of phosphonium degradation products was measured to be 0.02 g/liter/day during this period.

- Phosphonium formation rate Average ([1]; 85° C., initial ligand concentration 0.14 M): 0.04 g/L/day
- Phosphonium formation rate (Average g/L/day) ([1]; 100° C., initial ligand concentration 0.10M): 0.1 g/L/day
- formation rate of phosphonium degradation products ([2]; Comparative Experiment 6, 400 psig, last reactor 100° C., other reactors 85° C., 140 hours): 0.07 g/L/day
- formation rate of phosphonium degradation products ([2]; Example 6, 400 psig, 85° C., 59 hours, Ligand A 2.5 wt %): 0.03 g/L/day
- formation rate of phosphonium degradation products ([2]; Example 6, 600 psig, 85° C., 153 hours, Ligand A 2.5 wt %): 0.02 g/L/day
- formation rate of phosphonium degradation products ([2]; Example 7, 400 psig, all reactors at 85° C., 59 hours, Ligand A 2.5 wt %): 0.03 g/L/day
- formation rate of phosphonium degradation products ([2]; Example 8, 300 psig, 95° C., 150 hours, Ligand A 2 wt %): 0.05 g/L/day
- formation rate of phosphonium degradation products ([2]; Example 8, 600 psig, 85° C., 350 hours, Ligand A 2 wt %): 0.02 g/L/day
SMILES: O=S(=O)([O-])c1cccc(P(C2CCCCC2)C2CCCCC2)c1.[Na+] [Ligand A, mono-sulfonated sodium salt of bis(dicyclohexyl)phenylphosphine]
